Data on 37 molecules can be found in patent US8299056B2 (Signal Pharmaceuticals, LLC, priority 2008, dated 2012).

Like-named read-outs stand apart in the source and are kept apart here.

The test deals with T1, Syk (Homo sapiens, UniProt P43405).
T1 construct: purchased Carna Biosciences
As to the kind of experiment: Syk HTRF assay. It is filed as biochemical. A digest of the protocol: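 Read-out is the 665 nm/615 nm time-resolved fluorescence ratio after EDTA stop and Eu-anti-phosphotyrosine plus streptavidin-DyLight 647 detection. Reaction ran 1 h at room temperature with start mix of 87.5 μM ATP and 80 nM substrate peptide in pH 7.6 HEPES/MgCl2 buffer.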

[1] abbreviates: activity levels A-D, read-out: Activity Level (IC50 in the Syk HTRF assay).
Where [2] appears, read: read-out: Activity Level (Syk HTRF assay IC50).
[3] abbreviates: IC50 activity level, read-out: Activity Level.

In the case of `C[C@H](CO)Nc1cccc2nc(Nc3ccc(C(F)(F)F)cc3)nn12` [Example 328, (R)-2-(2-(4-(trifluoromethyl)phenylamino)-[1,2,4]triazolo[1,5-a]pyridin-5-ylamino)propan-1-ol], under setting [1], the IC50 lay in the range of 1000 to 10000 nM.

For `CC1(C)C(=O)Nc2cc(Nc3nc4cccc(NC5CCCNC5)n4n3)ccc21` (stereo in doubt) [Example 154, (S)-3,3-dimethyl-6-(5-(piperidin-3-ylamino)-[1,2,4]triazolo[1,5-a]pyridin-2-ylamino)indolin-2-one], the IC50 under setting [2] is 0.005 to 250 nM.

On to `c1ccc(Nc2nc3cccc(NC4CCNCC4)n3n2)cc1` [Example 523, N^2-phenyl-N^5-(piperidin-4-yl)-[1,2,4]triazolo[1,5-a]pyridine-2,5-diamine], for which the IC50 under setting [3] was in the range of 500 to 1000 nM.

On to `O[C@H]1CCC[C@H](Nc2cccc3nc(Nc4ccc(C(F)(F)F)cc4)nn23)C1` (single isomer, unassigned; enantiomer 2) [Example 226, trans-3-(2-(4-(trifluoromethyl)(phenylamino)-[1,2,4]triazolo[1,5-a]pyridin-5-ylamino)cyclohexanol (enantiomer 2)], for which the IC50 under setting [1] fell in the range of 500 to 1000 nM.

As for `N#Cc1cc(Nc2nc3cccc(-c4ccccc4)n3n2)ccn1` [compound 52], the IC50 under setting [2] is 1000 to 10000 nM.

Take `Fc1ccc(Nc2nc3cccc(N[C@H]4CCCNC4)n3n2)cc1` [Example 465, (S)-N^2-(4-fluorophenyl)-N^5-(piperidin-3-yl)-[1,2,4]triazolo[1,5-a]pyridine-2,5-diamine]: the IC50 under setting [3] lay within 0.005 to 250 nM.

On to `NC(=O)c1ccc(Nc2nc3cccc(N[C@H]4CC[C@@H](O)CC4)n3n2)cn1` [Example 370, cis-5-(5-(4-hydroxycyclohexylamino)-[1,2,4]triazolo[1,5-a]pyridin-2-ylamino)picolinamide], for which the IC50 under setting [1] is 500 to 1000 nM.

`CN(C)c1cccc2nc(Nc3ccccc3)nn12` [Example 477, N^5,N^5-dimethyl-N^2-phenyl-[1,2,4]triazolo[1,5-a]pyridin-2,5-diamine]: the IC50 under setting [3] fell in the range of 1000 to 10000 nM.

Regarding `COc1cncc(Nc2nc3cccc(-c4ccccc4)n3n2)c1` [compound 38, N-(5-methoxypyridin-3-yl)-5-phenyl-[1,2,4]triazolo[1,5-a]pyridin-2-amine], the IC50 under setting [2] fell in the range of 500 to 1000 nM.

Take `CC(CO)Cc1cccc2nc(Nc3ccccc3)nn12` (stereo in doubt) [Example 480, (S)-2-methyl-3-(2-(phenylamino)-[1,2,4]triazolo[1,5-a]pyridin-5-yl)propan-1-ol]: under setting [3], the IC50 was 250 to 500 nM.

On to `Oc1cccc(-c2cccc3nc(Nc4ccc5cnoc5c4)nn23)c1` [compound 14, 3-(2-(benzo[d]isoxazol-6-ylamino)-[1,2,4]triazolo[1,5-a]pyridin-5-yl)phenol], for which the IC50 under setting [2] fell in the range of 0.005 to 250 nM.

As to `Cc1n[nH]c2cc(Nc3nc4cccc(N(C)C5CCOCC5)n4n3)ccc12` [Example 189, N^5-methyl-N^2-(3-methyl-1H-indazol-6-yl)-N^5-(tetrahydro-2H-pyran-4-yl)-[1,2,4]triazolo[1,5-a]pyridin-2,5-diamine], the IC50 under setting [2] lay within 0.005 to 250 nM.

Consider `CN1C(=O)C(C)(C)c2ccc(Nc3nc4cccc(NC5CCOCC5)n4n3)cc21` [Example 151, 1,3,3-trimethyl-6-(5-(tetrahydro-2H-pyran-4-ylamino)-[1,2,4]triazolo[1,5-a]pyridin-2-ylamino)indolin-2-one], for which, under setting [2], the IC50 lay within 0.005 to 250 nM.

Turning to `CNC(=O)c1ccc(Nc2nc3cccc(-c4cccc(CCN)c4)n3n2)cc1` [compound 11, 4-(5-(3-(2-aminoethyl)phenyl)-[1,2,4]triazolo[1,5-a]pyridin-2-ylamino)-N-methylbenzamide], under setting [2], the IC50 was in the range of 250 to 500 nM.

As to `Cn1ncc2ccc(Nc3nc4cccc(-c5cccc(O)c5)n4n3)cc21` [compound 19], the IC50 under setting [2] is 0.005 to 250 nM.

As for `O=C(NC1CCNCC1)c1ccc(Nc2nc3cccc(-c4ccccc4)n3n2)cc1` [compound 77, 4-(5-phenyl-[1,2,4]triazolo[1,5-a]pyridin-2-ylamino)-N-(piperidin-4-yl)benzamide], the IC50 under setting [2] lay in the range of 0.005 to 250 nM.

Regarding `CC(=O)N1CCc2cc(Nc3nc4cccc(-c5ccccc5)n4n3)ccc21` [compound 60, 1-(5-(5-phenyl-[1,2,4]triazolo[1,5-a]pyridin-2-ylamino)indolin-1-yl)ethanone], the IC50 under setting [2] lay within 0.005 to 250 nM.

As for `Cc1nnc2cc(Nc3nc4cccc(N[C@H]5CC[C@@H](O)CC5)n4n3)ccn12` [Example 568, cis-4-(2-(3-methyl-[1,2,4]triazolo[4,3-a]pyridin-7-ylamino)-[1,2,4]triazolo[1,5-a]pyridin-5-ylamino)cyclohexanol], the IC50 under setting [3] was 0.005 to 250 nM.

For the molecule `Oc1cc(-c2cccc3nc(Nc4ccccc4)nn23)ccn1` [Example 517, 4-(2-(phenylamino)-[1,2,4]triazolo[1,5-a]pyridin-5-yl)pyridin-2-ol], the IC50 under setting [3] was in the range of 1000 to 10000 nM.

As for `O[C@H]1CCCC[C@@H]1Nc1cccc2nc(Nc3ccc(C(F)(F)F)cc3)nn12` [Example 334, (1S,2S)-2-(2-(4-(trifluoromethyl)phenylamino)-[1,2,4]triazolo[1,5-a]pyridin-5-ylamino)cyclohexanol], the IC50 under setting [1] lay in the range of 1000 to 10000 nM.

For the molecule `Cc1nn(CCO)c2cc(Nc3nc4cccc(N[C@H]5CC[C@@H](O)CC5)n4n3)ccc12` [Example 191, cis-4-(2-(1-(2-hydroxyethyl)-3-methyl-1H-indazol-6-ylamino)-[1,2,4]triazolo[1,5-a]pyridin-5-ylamino)cyclohexanol], the IC50 under setting [2] lay in the range of 0.005 to 250 nM.

Take `Cc1cc(Nc2nc3cccc(NC4CCOCC4)n3n2)cnc1N1CCOCC1` [Example 547, N^2-(5-methyl-6-morpholinopyridin-3-yl)-N^5-(tetrahydro-2H-pyran-4-yl)-[1,2,4]triazolo[1,5-a]pyrridine-2,5-diamine]: the IC50 under setting [3] was in the range of 500 to 1000 nM.

In the case of `CNc1nc2cc(-c3cccc4nc(Nc5ccccc5)nn34)ccc2[nH]1` [Example 481, 5-(2-(methylamino)-1H-benzo[d]imidazol-5-yl)-N-phenyl-[1,2,4]triazolo[1,5-a]pyridin-2-amine], the IC50 under setting [3] was in the range of 0.005 to 250 nM.

As for `CN(c1cccc2nc(Nc3ccc4c(cnn4C)c3)nn12)C1CCOCC1` [Example 542, N^5-methyl-N^2-(1-methyl-1H-indazol-5-yl)-N^5-(tetrahydro-2H-pyran-4-yl)-[1,2,4]triazolo[1,5-a]pyridine-2,5-diamine], the IC50 under setting [3] lay within 0.005 to 250 nM.

Consider `Cc1cc(Nc2nc3cccc(N[C@H]4CC[C@@H](O)CC4)n3n2)cc(C)c1F` [Example 279, cis-4-(2-(4-fluoro-3,5-dimethylphenylamino)-[1,2,4]triazolo[1,5-a]pyridin-5-ylamino)cyclohexanol], for which the IC50 under setting [1] was in the range of 0.005 to 250 nM.

For `C[C@]1(O)CC[C@H](Nc2cccc3nc(Nc4ccc(C(F)(F)F)cc4)nn23)CC1` [Example 384, cis-1-methyl-4-(2-(4-(trifluoromethyl)phenylamino)-[1,2,4]triazolo[1,5-a]pyridin-5-ylamino)cyclohexanol], the IC50 under setting [1] was in the range of 0.005 to 250 nM.

With `Cn1ncc2cc(Nc3nc4cccc(N[C@H]5CC[C@@H](O)CC5)n4n3)cnc21` [Example 139, cis-4-(2-(1-methyl-1H-pyrazolo[3,4-b]pyridin-5-ylamino)-[1,2,4]triazolo[1,5-a]pyridin-5-ylamino)cyclohexanol], the IC50 under setting [2] fell in the range of 0.005 to 250 nM.

On to `Nc1n[nH]c2cc(Nc3nc4cccc(CC5CCC(O)CC5)n4n3)ccc12` (stereo not shown) [Example 208, 4-((2-(3-amino-1H-indazol-6-ylamino)-[1,2,4]triazolo[1,5-a]pyridin-5-yl)methyl)cyclohexanol], for which the IC50 under setting [1] is 0.005 to 250 nM.

On to `FC(F)(F)c1ccc(Nc2nc3cccc(OC4CCNCC4)n3n2)cc1` [Example 352, 5-(piperidin-4-yloxy)-N-(4-(trifluoromethyl)phenyl)-[1,2,4]triazolo[1,5-a]pyridin-2-amine], for which, under setting [1], the IC50 is 1000 to 10000 nM.

With `CNc1cc(Nc2nc3cccc(N[C@H]4CC[C@@H](O)CC4)n3n2)ccn1` [Example 366, cis-4-(2-(2-(methylamino)pyridin-4-ylamino)-[1,2,4]triazolo[1,5-a]pyridin-5-ylamino)cyclohexanol], the IC50 under setting [1] lay within 0.005 to 250 nM.

Take `C[C@@H](CO)Cc1cccc2nc(Nc3ccccc3)nn12` [Example 479, (R)-2-methyl-3-(2-(phenylamino)-[1,2,4]triazolo[1,5-a]pyridin-5-yl)propan-1-ol]: the IC50 under setting [3] lay in the range of 500 to 1000 nM.

For the molecule `O[C@H]1CCC[C@H](Nc2cccc3nc(Nc4ccc(C(F)(F)F)cc4)nn23)C1` (racemic) [Example 248, (±)-trans-3-(2-(4-(trifluoromethyl)phenylamino)-[1,2,4]triazolo[1,5-a]pyridin-5-ylamino)cyclohexanol], the IC50 under setting [1] lay in the range of 0.005 to 250 nM.

Take `Cc1cc(-c2cccc3nc(Nc4ccccc4)nn23)no1` [Example 473, 5-(5-methylisoxazol-3-yl)-N-phenyl-[1,2,4]triazolo[1,5-a]pyridin-2-amine]: the IC50 under setting [3] was in the range of 500 to 1000 nM.

In the case of `NCCOc1cc(-c2cccc3nc(Nc4ccccc4)nn23)ccn1` [Example 444, 5-(2-(2-aminoethoxy)pyridin-4-yl)-N-phenyl-[1,2,4]triazolo[1,5-a]pyridin-2-amine], the IC50 under setting [3] lay in the range of 250 to 500 nM.

Regarding `FC(F)(F)c1ccc(Nc2nc3cccc(OC4CCCNC4)n3n2)cc1` (stereo in doubt) [Example 361, (R)-5-(piperidin-3-yloxy)-N-(4-(trifluoromethyl)phenyl)-[1,2,4]triazolo[1,5-a]pyridin-2-amine], the IC50 under setting [1] fell in the range of 1000 to 10000 nM.

As to `Oc1ccc(Nc2nc3cccc(N[C@H]4CC[C@@H](O)CC4)n3n2)cn1` [Example 371, cis-5-(5-(4-hydroxycyclohexylamino)-[1,2,4]triazolo[1,5-a]pyridin-2-ylamino)pyridin-2-ol], under setting [1], the IC50 was in the range of 1000 to 10000 nM.

As for `O[C@@H]1CCN(c2cccc3nc(Nc4ccc(C(F)(F)F)cc4)nn23)C1` [Example 332, (R)-1-(2-(4-(trifluoromethyl)phenylamino)-[1,2,4]triazolo[1,5-a]pyridin-5-yl)pyrrolidin-3-ol], the IC50 under setting [1] is 500 to 1000 nM.
